Reference: patent US20040067853A1, “Sulfonamide derivative-containing agricultural and horticultural composition” (priority 2001, published 2004)

How the values were obtained:
Pyrenophora teres = assay: Protective effect of Pyrenophora teres on barley seedlings (spray, protection value from lesion area ratio; Colby's equation for mixtures); type: in vivo
Method: (§1) Hereunder, the evaluation of each fungicide was carried out by converting the ratio into a protection value after measuring the lesion area ratio (in percentage). The protectin value was calculated by means of the equation as follows.
(§2) protection value=(1−(lesion area in the division treated with fungicide)/lesion area in the division not treated with fungicide))×100
(§3) An estimated protection value of a mixture of active ingredients was calculated according to the Colby's equation [R. S. Colby, Weeds 15, 20-22 (1967)] and compared with the experimental protection value.
(§4) wherein E is the estimated protection value (additive effect) which will be obtained when the active ingredients A and B are used in a mixture in concentrations a and b, respectively, x is the protection value obtained when the active ingredient A is used in a concentration a, and y is the protection value obtained when the active ingredient B is used in a concentration b. […] A protection value 0 means that the lesion area ratio of the plants in the test group is as large as that of the plants in the untreated control group. A protective value 100 means that the plants in the test group are free from the disease.
The supplied compound (that is, the compound to which number (No.) was attached in Table 1), and A (picoxystrobin), B (trifloxystrobin), C (pyraclostrobin), D (cresoxime methyl), E (epoxiconazole), F (flusilazole) and G (tebuconasole) shown in Table 31 were, alone or in a mixture form, dissolved into dimethylformamide (final concentration: 1% by weight). Thereto were added xylene (final concentration: 0.02% by weight) and Tween 20 (trade name) (final concentration: 0.02% by weight), and then the solution was diluted with water to have a desired effective component concentration (ppm). To this solution was added a spreading agent SINDAIN (trade name, made by Takeda Chemical Industries, Ltd.) containing 20% by weight of polyoxyethylene nonylphenyl ether and 12% by weight of calcium ligninsulfonate so as to have a final concentration of 0.05% by weight. Thus, a spray solution was prepared. The solution was sprayed, at a rate of 40 ml/pot, onto barley seedlings (cultural variety: Shiaga Hasseki No. 5) grown for 1 week in a greenhouse. After air drying, a suspension containing spores (5×10^5/ml) of Pyrenophora teres was sprayed and inoculated thereto at a rate of 2 ml/pot. After the inoculation, the seedlings were kept inside a high-humidity box having a temperature of 24° C. for 18 hours and then put into a room. After 9 days, the lesion area ratio on the treated leaves was investigated.

Alternaria mali = assay: Prevention effect of Alternaria mali on apple seedlings (spray, protection value from lesion area ratio; Colby's equation for mixtures); type: in vivo
Method: as §1, §2, §3, §4
The supplied compound (that is, the compound to which number (No.) was attached in Table 1-29), and A (picoxystrobin), B (trifloxystrobin), and C (pyraclostrobin) shown in Table 30 were, alone or in a mixture form, dissolved into dimethylformamide (final concentration: 1% by weight). Thereto were added xylene (final concentration: 0.02% by weight) and Tween 20 (trade name) (final concentration: 0.02% by weight), and then the solution was diluted with water to have a desired effective component concentration (ppm). To this solution was added a spreading agent SINDAIN (trade name, made by Takeda Chemical Industries, Ltd.) containing 20% by weight of polyoxyethylene nonylphenyl ether and 12% by weight of calcium ligninsulfonate so as to have a final concentration of 0.05% by weight. Thus, a spray solution was prepared. The solution was sprayed, at a rate of 10 ml/pot, onto the apple seedlings (cultural variety: Star King Delicous) grown for 3 or 4 weeks in a greenhouse. After one day from the treatment, a suspension containing a 1% yeast extract, a 1% sucrose, and spores (5×10^5/ml) of Alternaria mali was sprayed and inoculated thereto at a rate of 1 ml/pot. After the inoculation, the trees were kept inside a high-humidity box having a temperature of 28° C. for 4 days. Thereafter, the lesion area ratio on the treated leaves was examined.

SMILES: Fc1ccc([C@]2(Cn3cncn3)O[C@H]2c2ccccc2Cl)cc1 (racemic) [epoxiconazole, (2RS,3SR)-1-[3-(2-chlorophenyl)-2,3-epoxy-2-(4-fluorophenyl)propyl]-1H-1,2,4-triazole]
- Lesion area ratio (%) (Pyrenophora teres; 5.0 ppm active ingredient): 15.0%
- Protection value (Pyrenophora teres; 5.0 ppm active ingredient): 70

SMILES: CCN(c1ccc(Cl)cc1[N+](=O)[O-])S(=O)(=O)c1ccc(C)cc1 [Compound No. 289, 4′-chloro-N-ethyl-2′-nitro-p-toluenesulfonanilide]
- melting point: 132.5 to 134 °C
- Lesion area ratio (%) (Pyrenophora teres; 0.5 ppm active ingredient): 17.5%
- Protection value (Pyrenophora teres; 0.5 ppm active ingredient): 65
- Lesion area ratio (%) (Alternaria mali; 0.4 ppm active ingredient): 19.8%
- Protection value (Alternaria mali; 0.4 ppm active ingredient): 58
- Lesion area ratio (%) (Alternaria mali; 1.6 ppm active ingredient): 19.5%
- Protection value (Alternaria mali; 1.6 ppm active ingredient): 59
- Lesion area ratio (%) (Alternaria mali; 6.3 ppm active ingredient): 3.5%
- Protection value (Alternaria mali; 6.3 ppm active ingredient): 93

SMILES: CO/N=C(/C(=O)OC)c1ccccc1COc1ccccc1C [cresoxime methyl]
- Lesion area ratio (%) (Pyrenophora teres; 5.0 ppm active ingredient): 27.5%
- Protection value (Pyrenophora teres; 5.0 ppm active ingredient): 45

SMILES: C[Si](Cn1cncn1)(c1ccc(F)cc1)c1ccc(F)cc1 [flusilazole]
- Lesion area ratio (%) (Pyrenophora teres; 5.0 ppm active ingredient): 25.0%
- Protection value (Pyrenophora teres; 5.0 ppm active ingredient): 50

SMILES: CO/C=C(/C(=O)OC)c1ccccc1COc1cccc(C(F)(F)F)n1 [picoxystrobin, methyl (E)-3-mthoxy-2-{2-[6-(trifluoromethyl)-2-pyridyloxymethyl]phenyl}acrylate]
- Lesion area ratio (%) (Pyrenophora teres; 0.2 ppm active ingredient): 17.5%
- Protection value (Pyrenophora teres; 0.2 ppm active ingredient): 65
- Lesion area ratio (%) (Alternaria mali; 6.3 ppm active ingredient): 11.5%
- Protection value (Alternaria mali; 6.3 ppm active ingredient): 76
- Lesion area ratio (%) (Alternaria mali; 25.0 ppm active ingredient): 9.5%
- Protection value (Alternaria mali; 25.0 ppm active ingredient): 80
- Lesion area ratio (%) (Alternaria mali; 100.0 ppm active ingredient): 6.2%
- Protection value (Alternaria mali; 100.0 ppm active ingredient): 87

SMILES: COC(=O)N(OC)c1ccccc1COc1ccn(-c2ccc(Cl)cc2)n1 [pyraclostrobin, methyl N-{2-[1-(4-chlorophenyl)-1-H-pyrazol-3-yloxymethyl]phenyl}(N-methoxy)carbamate]
- Lesion area ratio (%) (Pyrenophora teres; 0.2 ppm active ingredient): 12.5%
- Protection value (Pyrenophora teres; 0.2 ppm active ingredient): 75
- Lesion area ratio (%) (Alternaria mali; 6.3 ppm active ingredient): 11.0%
- Protection value (Alternaria mali; 6.3 ppm active ingredient): 77
- Lesion area ratio (%) (Alternaria mali; 25.0 ppm active ingredient): 11.0%
- Protection value (Alternaria mali; 25.0 ppm active ingredient): 77
- Lesion area ratio (%) (Alternaria mali; 100.0 ppm active ingredient): 3.7%
- Protection value (Alternaria mali; 100.0 ppm active ingredient): 92

SMILES: CC(C)(C)C(O)(CCc1ccc(Cl)cc1)Cn1cncn1 (centres unmarked) [tebuconasole]
- Lesion area ratio (%) (Pyrenophora teres; 5.0 ppm active ingredient): 22.5%
- Protection value (Pyrenophora teres; 5.0 ppm active ingredient): 55

SMILES: CO/N=C(/C(=O)OC)c1ccccc1CO/N=C(\C)c1cccc(C(F)(F)F)c1 [trifloxystrobin, methyl-(E)-methoxyimino-{(E)-α-[1-(α,α,α-trifluoro-m-tolyl)ethylideneaminooxy]-o-tolyl}acetate]
- Lesion area ratio (%) (Pyrenophora teres; 0.2 ppm active ingredient): 27.5%
- Protection value (Pyrenophora teres; 0.2 ppm active ingredient): 45
- Lesion area ratio (%) (Alternaria mali; 6.3 ppm active ingredient): 61.7%
- Protection value (Alternaria mali; 6.3 ppm active ingredient): 0
- Lesion area ratio (%) (Alternaria mali; 25.0 ppm active ingredient): 4.7%
- Protection value (Alternaria mali; 25.0 ppm active ingredient): 90
- Lesion area ratio (%) (Alternaria mali; 100.0 ppm active ingredient): 2.2%
- Protection value (Alternaria mali; 100.0 ppm active ingredient): 95
